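Exposure lasted 48 hours, with cells grown in 96-well plates and compounds tested at five concentrations. TGI is the concentration that stops growth completely.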
What was measured:
Experiment in all cases: NCI tumour cell line growth inhibition, 48 h
786-0 renal = tested on: 786-0 renal
SNB-75 CNS = tested on: SNB-75 CNS
OVCAR-4 ovarian = tested on: OVCAR-4 ovarian
NCI-H23 lung = tested on: NCI-H23 lung
TK-10 renal = tested on: TK-10 renal
SF-268 CNS = tested on: SF-268 CNS
M14 melanoma = tested on: M14 melanoma
NCI-H460 lung = tested on: NCI-H460 lung
HT29 colon = tested on: HT29 colon
NCI-H226 lung = tested on: NCI-H226 lung
LOX IMVI melanoma = tested on: LOX IMVI melanoma

| SMILES | TGI (786-0 renal) [µM] | TGI (SNB-75 CNS) [µM] | TGI (OVCAR-4 ovarian) [µM] | TGI (NCI-H23 lung) [µM] | TGI (TK-10 renal) [µM] | TGI (SF-268 CNS) [µM] | TGI (M14 melanoma) [µM] | TGI (NCI-H460 lung) [µM] | TGI (HT29 colon) [µM] | TGI (NCI-H226 lung) [µM] | TGI (LOX IMVI melanoma) [µM] |
| --- | --- | --- | --- | --- | --- | --- | --- | --- | --- | --- | --- |
| COC(=O)c1cc2c(n1S(=O)(=O)c1ccc(C)cc1)C(=O)C(=O)c1[nH]cc(C(=O)OCc3ccccc3)c1-2 | 1.07 | 0.3 | 0.987 | 0.211 | 1.51 | 1.24 | 0.167 | 2.83 | 1.15 | 0.462 | 0.176 |
| CC(C)C1/C(=N/O)CC(c2ccccc2)N(N=O)C1c1ccccc1 (stereo not given) | > 100 | > 100 | > 100 | > 100 | > 100 | > 100 | > 100 | 67.5 | 39 | > 100 | > 100 |
| CCC12C=CCN3CCC4(C(=C(C(=O)OC)[C@@H]1O)Nc1ccccc14)C32 (stereo not given in full) | 3.07 | 5.8 | 4.17 | 3.72 | 5.37 | 6.76 | 5.54 | 3.71 | 3.76 | 2.71 | 3.26 |
| Cc1ccccc1-n1c(=O)c2ncn(CCCl)c2n(-c2ccccc2C)c1=S | > 100 | > 100 | > 100 | > 100 | > 100 | > 100 | > 100 | > 100 | > 100 | > 100 | > 100 |
| CNS(=O)(=O)NNS(=O)(=O)c1ccc2ccccc2c1 | > 100 | > 100 | > 100 | > 100 | > 100 | > 100 | > 100 | > 100 | > 100 | > 100 | > 100 |
| CCOC(=O)C1=C(C)NC(=S)NC1c1ccccc1 (stereo not given) | > 100 | > 100 | > 100 | > 100 | > 100 | > 100 | > 100 | > 100 | > 100 | > 100 | > 100 |
| Oc1cccc2c(Cl)ccnc12 | > 100 | > 100 | 7.45 | 26.2 | > 100 | > 39.3 | 13.4 | > 100 | 33.6 | > 100 | 19.6 |
| Nc1cccc2cc(Cl)cnc12 | > 100 | > 100 | > 100 | > 100 | > 100 | > 100 | > 100 | > 100 | > 100 | > 100 | > 100 |
| O=[N+]([O-])C(=C1NCCN1)/C(Cl)=C(\Cl)Br | 33.5 | > 86.3 | > 100 | > 69.6 | > 100 | > 89.9 | > 100 | > 100 | > 59 | > 100 | 33.4 |
| [N-]=[N+]=Nc1cc(=O)oc2ccccc12 | > 100 | > 100 | > 100 | > 100 | > 100 | > 100 | > 100 | > 100 | > 100 | > 100 | > 100 |

From PubChem BioAssay (NCI)
